Experimental data: patent US8673929B2, “4,6-di- and 2,4,6-trisubstituted quinazoline derivatives and pharmaceutical compositions useful for treating viral infections” (priority 2006, dated 2014)

Columns and labels:
HCV replicon = assay: Anti-HCV replicon assay, EC50 (luciferase readout); format: cell-based; details: Huh-7 HCV replicon cells, 3 days incubation, luciferase luminescence
Protocol: (§1) The anti HCV activity of the quinazoline derivatives of this invention was tested in a human hepatoma Huh-7 cell line harbouring a HCV replicon. The assay comprised the following steps:
(§2) Step 1: compound preparation and serial dilution • 1. for water soluble quinazoline derivatives, a volume of 500 μL of solution in cell media (DMEM, 10% FBS, P/S, L-Glutamine) was prepared with a concentration being twice the concentration of the starting final serial dilution concentration. A volume of 150 μL of the solution was added to the pre-specified wells in column 1 of a 96-well cell culture plate (PerkinElmer, white plate, cat. #6005181, for EC50 assay; black plate, cat. #6005182 for CC50 assay). The rest of the plate, columns 2-12, was filled with 100 μL of cell media. The plate was then placed on a Precision 2000 Workstation to start the serial dilution. Compounds were diluted three times each step from column 1 to column 10. Column 11 was used as a blank control (no compound added). • 2. for quinazoline derivatives requiring DMSO to dissolve, serial dilution is performed in 50% DMSO in a 384-well plate. A solution containing a compound at 100-fold concentration of the starting final serial dilution concentration was prepared in 50% DMSO and added to the pre-specified wells in column 1 of a polypropylene 384-well plate. The plate was then placed on a Precision 2000 Workstation to start the serial dilution. After the serial dilution, a volume of 2 μL of the solution was transferred from the 384-well plate to a 96-well cell culture plate containing 100 μL of cell media on a Biomek FX Workstation. The DMSO concentration in the final assay condition was 0.5% after cells are added to the plate and the total volume in each well is brought to 200 μL.
(§3) Step 2: to each well of the serial dilution plate prepared above, 100 μL of cell media containing 6000 suspended Huh-7 HCV replicon cells was added with a Multidrop workstation. The plates were incubated for 3 days at 37° C. with 5% CO2.
(§4) Step 3: detection: • a) for the EC50 assay, the media in a 96-well cell culture plate was aspirated with a Biotek EL405 plate-washer. A volume of 200 μL of a solution containing a 1:1 mixture of cell-lysis buffer (Promega, Luciferase Cell Culture Lysis 5× Reagent, cat. #E1531) and luciferase substrate solution (Promega, Luciferase Assay, cat.# E4550) was added to each well of the plate with Multidrop. The plate was incubated for 30 minutes at room temperature before the luminescence signal was measured with a TopCount plate-reader. • b) for the CC50 assay, a volume of 100 μL of pre-mixed CellTiter-Glo (Promega, cat.# G7572) solution is added directly to the cell culture in each well of the plate and the luminescence signal is measured with a TopCount plate-reader after 10 minutes of incubation at room temperature.
(§5) Results in the table below are expressed by the following data: • the 50% cytostatic concentration (CC50), i.e. the concentration that results in 50% inhibition of cell growth, and • the 50% effective concentration (EC50), i.e. the concentration that […].

[1] = CC50 assay in the anti-HCV replicon assay (CellTiter-Glo); format: cell-based, human; details: human, Huh-7 hepatoma cells harbouring an HCV replicon; Huh-7 HCV replicon cells, 3 days incubation, CellTiter-Glo luminescence
Protocol: as §1, §2, §3, §4, §5

Row | Compound | EC50 (HCV replicon) [µM] | CC50 at 3 days [1] [µM] | EC50 (HCV replicon; Hepatitis C virus, 72 h) [µM]
1 | 4-(4-(2-methmethoxy)-quinazolin-6-yl)-N-methyl-benzamide [Example 246] | 1 to 10 |  | 
2 | COc1ccc(-c2ccc3nc(N)nc(OC(C)C)c3c2)cc1OC [Example 18, 2-amino-6-(3,4-dimethoxyphenyl)-4-isopropoxy-quinazoline] |  | < 10 | < 0.3
3 | CCOc1nc(N)nc2ccc(-c3ccc(F)cc3)cc12 [Example 19, 2-amino-4-ethoxy-6-(4-fluorophenyl)-quinazoline] |  | > 20 | 1 to 10
4 | COCCOc1nc(N)nc2ccc(-c3ccc(F)cc3)cc12 [Example 20, 2-amino-6-(4-fluorophenyl)-4-(2-methoxyethoxy)-quinazoline] |  | 10 to 20 | 1 to 10
5 | CC(C)Oc1nc(N)nc2ccc(-c3ccc(F)cc3)cc12 [Example 21, 2-amino-6-(4-fluorophenyl)-4-isopropoxy-quinazoline] |  | > 20 | 1 to 10
6 | Nc1nc(OCC(F)(F)F)c2cc(-c3ccc(F)cc3)ccc2n1 [Example 26, 2-amino-6-(4-fluorophenyl)-4-(2,2,2-trifluoroethoxy)-quinazoline] |  | 10 to 20 | 1 to 10
7 | CC(=O)Nc1ccc(-c2ccc3nc(N)nc(OC(C)C)c3c2)cc1 [Example 27, 2-amino-6-(4-acetamidophenyl)-4-isopropoxy-quinazoline] |  | > 20 | 0.3 to 1
8 | COCCOc1nc(N)nc2ccc(-c3ccc(NC(C)=O)cc3)cc12 [Example 28, 2-amino-6-(4-acetamidophenyl)-4-(2-methoxyethoxy)-quinazoline] |  | 10 to 20 | 0.3 to 1
9 | CC(=O)Nc1ccc(-c2ccc3nc(N)nc(OCCN4CCOCC4)c3c2)cc1 [Example 29, 2-amino-6-(4-acetamidophenyl)-4-[2-(4-morpholinyl)ethoxy]-quinazoline] |  | > 20 | 0.3 to 1
10 | CCOc1nc(N)nc2ccc(-c3ccc(NC(C)=O)cc3)cc12 [Example 30, 2-amino-6-(4-acetamidophenyl)-4-ethoxy-quinazoline] |  | > 20 | 0.3 to 1
11 | CC(=O)Nc1ccc(-c2ccc3nc(N)nc(OCC4CC4)c3c2)cc1 [Example 31, 2-amino-6-(4-acetamidophenyl)-4-(cyclopropyl-methoxy)-quinazoline] |  | > 20 | 0.3 to 1
12 | CC(=O)Nc1ccc(-c2ccc3nc(N)nc(OCC(F)(F)F)c3c2)cc1 [Example 32, 2-amino-6-(4-acetamidophenyl)-4-(2,2,2-trifluoroethoxy)-quinazoline] |  | > 20 | 0.3 to 1
13 | CCOc1ncnc2ccc(-c3ccc(F)cc3)cc12 [Example 34, 4-ethoxy-6-(4-fluorophenyl)-quinazoline] |  | > 20 | 0.3 to 1
14 | COCCOc1ncnc2ccc(-c3ccc(F)cc3)cc12 [Example 35, 4-(2-methoxyethoxy)-6-(4-fluorophenyl)-quinazoline] |  | > 20 | 1 to 10
15 | CCOc1nc(N)nc2ccc(-c3cccc(F)c3F)cc12 [Example 38] |  | 10 to 20 | 1 to 10
16 | CCOc1nc(N)nc2ccc(-c3ccc(C)cc3)cc12 [Example 39, 4-Ethoxy-6-p-tolyl-quinazolin-2-ylamine] |  | > 20 | 1 to 10
17 | CCOc1nc(N)nc2ccc(-c3ccoc3)cc12 [Example 40, 4-Ethoxy-6-furan-3-yl-quinazolin-2-ylamine] |  | > 20 | 1 to 10
18 | CCOc1nc(N)nc2ccc(-c3ccn[nH]3)cc12 [Example 41, 4-Ethoxy-6-(2H-pyrazol-3-yl)-quinazolin-2-ylamine] |  | > 20 | 1 to 10
19 | CCOc1nc(N)nc2ccc(-c3cccs3)cc12 [Example 42, 4-Ethoxy-6-thiophen-2-yl-quinazolin-2-ylamine] |  | < 10 | 1 to 10

Row | Compound | EC50 (HCV replicon) [µM] | CC50 at 3 days [1] [µM] | EC50 (HCV replicon; Hepatitis C virus, 72 h) [µM]
20 | CCOc1nc(N)nc2ccc(-c3ccc(C(=O)NC)cc3)cc12 [Example 43, 4-(2-Amino-4-ethoxy-quinazolin-6-yl)-N-methyl-benzamide] |  | > 20 | < 0.3
21 | CCOc1nc(N)nc2ccc(-c3ccco3)cc12 [Example 44, 4-Ethoxy-6-furan-2-yl-quinazolin-2-ylamine] |  | > 20 | 1 to 10
22 | CCOc1nc(N)nc2ccc(-c3ccsc3)cc12 [Example 45, 4-Ethoxy-6-thiophen-3-yl-quinazolin-2-ylamine] |  | > 20 | 1 to 10
23 | CCOc1nc(N)nc2ccc(-c3ccc(F)c(F)c3)cc12 [Example 46, 6-(3,4-Difluoro-phenyl)-4-ethoxy-quinazolin-2-ylamine] |  | > 20 | 1 to 10
24 | CCOc1nc(N)nc2ccc(-c3cccc(C#N)c3)cc12 [Example 47, 3-(2-Amino-4-ethoxy-quinazolin-6-yl)-benzonitrile] |  | > 20 | 1 to 10
25 | CCOc1nc(N)nc2ccc(-c3cn[nH]c3)cc12 [Example 48, 4-Ethoxy-6-(2H-pyrazol-4-yl)-quinazolin-2-ylamine] |  | > 20 | 0.3 to 1
26 | CCOc1nc(N)nc2ccc(-c3ccc(N)cc3)cc12 [Example 49, 6-(4-Amino-phenyl)-4-ethoxy-quinazolin-2-ylamine] |  | > 20 | 1 to 10
27 | CCOc1nc(N)nc2ccc(-c3ccc(F)c(F)c3F)cc12 [Example 50, 4-Ethoxy-6-(2,3,4-trifluoro-phenyl)-quinazolin-2-ylamine] |  | 10 to 20 | 1 to 10
28 | CCOc1nc(N)nc2ccc(-c3ccc(O)cc3)cc12 [Example 51, 4-(2-Amino-4-ethoxy-quinazolin-6-yl)-phenol] |  | 10 to 20 | 0.3 to 1
29 | COCCOc1nc(N)nc2ccc(-c3cccc(F)c3F)cc12 [Example 52, 6-(2,3-Difluoro-phenyl)-4-(2-methoxy-ethoxy)-quinazolin-2-ylamine] |  | 10 to 20 | 1 to 10
30 | COCCOc1nc(N)nc2ccc(-c3ccccc3C(F)(F)F)cc12 [Example 53, 4-(2-Methoxy-ethoxy)-6-(2-trifluoromethyl-phenyl)-quinazolin-2-ylamine] |  | < 10 | 1 to 10
31 | COCCOc1nc(N)nc2ccc(-c3ccc(Cl)s3)cc12 [Example 54, 6-(5-Chloro-thiophen-2-yl)-4-(2-methoxy-ethoxy)-quinazolin-2-ylamine] |  | > 20 | 1 to 10
32 | COCCOc1nc(N)nc2ccc(-c3ccc(C)cc3)cc12 [Example 55, 4-(2-Methoxy-ethoxy)-6-p-tolyl-quinazolin-2-ylamine] |  | > 20 | 1 to 10
33 | COCCOc1nc(N)nc2ccc(-c3cc4ccccc4s3)cc12 [Example 56, 6-Benzo[b]thiophen-2-yl-4-(2-methoxy-ethoxy)-quinazolin-2-ylamine] |  | > 20 | 1 to 10
34 | COCCOc1nc(N)nc2ccc(-c3cc4ccccc4o3)cc12 [Example 57, 6-Benzofuran-2-yl-4-(2-methoxy-ethoxy)-quinazolin-2-ylamine] |  | 10 to 20 | 1 to 10
35 | COCCOc1nc(N)nc2ccc(-c3cccs3)cc12 [Example 58, 4-(2-Methoxy-ethoxy)-6-thiophen-2-yl-quinazolin-2-ylamine] |  | > 20 | 1 to 10
36 | CNC(=O)c1ccc(-c2ccc3nc(N)nc(OCCOC)c3c2)cc1 [Example 59, 4-(2-Amino-4-(2-methoxy-ethoxy)-quinazolin-6-yl)-N-methyl-benzamide] |  | > 20 | 1 to 10
37 | COCCOc1nc(N)nc2ccc(-c3ccco3)cc12 [Example 60, 4-(2-Methoxy-ethoxy)-6-furan-2-yl-quinazolin-2-ylamine] |  | > 20 | 1 to 10
38 | COCCOc1nc(N)nc2ccc(-c3ccsc3)cc12 [Example 61, 4-(2-Methoxy-ethoxy)-6-thiophen-3-yl-quinazolin-2-ylamine] |  | > 20 | 1 to 10
